# Test results reported in US11207308B2, “Pharmaceutical compositions for combination therapy” (PRILENIA NEUROTHERAPEUTICS LTD., priority 2012, dated 2021).
# Where “and” joins values, the source holds several entries; their conditions need not be identical. Equal values may be shown once. Entries after “also recorded” stand apart in the source; their conditions may differ. Read-outs that look alike come from different tables or passages of the source.
# Assays:
# [1] = test system: striatal DOPAC; experiment: Striatal DOPAC tissue level (HPLC/EC), interaction with Tetrabenazine; conditions: percentage of Tetrabenazine control group mean
# [2] = test system: striatal DOPAC; experiment: Striatal DOPAC tissue level (HPLC/EC), dose-response in naive rats; type: in vivo, rat; conditions: mean ± SEM, percentage of vehicle control group mean
# Procedure: (§1) Rats weighed 160-180 g at the time of arrival.
# (§2) The treatment groups consisted of Vehicle (saline; NaCl 0.9% v/w) and ACR16 tested at three doses (11; 33 and 100 μmol/kg).
# (§3) KR104: Animals were allocated into five different treatment groups, n=4.
# (§4) All compounds were injected s.c. four minutes before start of locomotor activity recording at a volume of 5 ml/kg.
# (§5) A digital sonifier (Branson Digital Sonifier 250-D) was used to homogenise tissue from the striatum and limbic region. […] All samples were centrifuged at 10.000 rpm for 10 minutes at +4° C. Cortex tissue was filtered in Munktell filter paper 5.5 cm quality 1 F. Tissue eluates were analysed with respect to tissue concentrations (ng/g tissue) of the monoamine transmitter substances (Norepinephrine (NA), dopamine (DA), 5-hydroxytryptamine (5-HT)) as well as their amine metabolites (normetanephrine (NM), 3-methoxytyramine (3-MT)) and acid metabolites ([…] (DOPAC), 5-hydrocyindoleacetic acid (5-HTAA), homovanillic acid (HVA)) by HPLC separations and electrochemical detection (HPLC/EC). Stock standards (DA, NA, 5-HT, 3-MT, DOPAC, HVA, HIAA, 500 μg/ml) and internal standard (AMDA 500 μg/ml) are prepared once every three months. 5-HT and 5HIAA are dissolved in milliQ water. DA, NA, DOPAC, NM, 3-MT and HVA are dissolved in 0.01 M HCl. 5-HT, 5-HIAA, NM and HVA are kept in fridge; DA, DOPAC, NA and 3-MT are kept in freezer.
# (§6) Detection potentials relative to Ag/AgCl reference are 0.45 and 0.60V. […] Detection potentials relative to Ag/AgCl reference are 0.45 and 0.65V.
# [3] = test system: striatal dopamine; experiment: Striatal dopamine (DA) tissue level (HPLC/EC), dose-response in naive rats; type: in vivo, rat; conditions: for DA striatum, dose-response in naive rats: mean ± SEM, percentage of vehicle control group mean
# Procedure: as §1, §2, §3, §4, §5, §6
# [4] = test system: Arc mRNA; experiment: Arc gene expression (Arc mRNA, real-time PCR) in striatum and frontal cortex, interaction with Tetrabenazine
# [5] = test system: Male Sprague-Dawley rats; conditions: for Locomotor activity, % of Tetrabenazine control group mean / Locomotor activity, % of Tetrabenazine control mean: full hour of recording; for Locomotor activity in Tetrabenazine treated rats, 15-60 min (in words): 15-60 min period; for Locomotor activity in Tetrabenazine treated rats, 15-60 min (in words) / Locomotor activity in Tetrabenazine treated rats, 0-15 min (in words): combined with Tetrabenazine 0.64 mg/kg, vs Tetrabenazine control; for Effect on Tetrabenazine induced locomotor activity reduction (in words): combined with Tetrabenazine 0.64 mg/kg s.c.; for Locomotor activity in Tetrabenazine treated rats, 0-15 min (in words): first 15 min
# From the text: No brain tissue was collected from this experiment. […] Each activity monitor consists of a quadratic metal frame equipped with photobeam sensors. […] Each activity monitor is equipped with three rows of infrared photobeam sensors, each row consisting of 16 sensors. […] Photobeam sensors are spaced 2.5 cm apart. Each activity monitor is fitted in an identical sound and light attenuating box (W×L×H—55×55×45) containing a weak house light and a fan. The computer software is written using object oriented programming (LabVIEW™, National instruments, Austin, Tex., USA). Behavioural data from each activity monitor, representing the position (horizontal center of gravity and vertical activity) of the animal at each time, are recorded at a sampling frequency of 25 Hz and collected using a custom written LABView™ application. The data from each recording session are stored and analyzed with respect to distance travelled. Each behavioural recording session lasts 60 min, starting approximately 4 min after the injection of test compound. The results are presented as counts/60 minutes, counts/45 minutes or counts/15 minutes, in arbitrary length units. Statistical comparisons are carried out using Student's t-test against the control group.
# [6] = test system: striatal dopamine; experiment: Striatal dopamine (DA) tissue level (HPLC/EC), interaction with Tetrabenazine; conditions: percentage of Tetrabenazine control group mean
# [7] = test system: Male Sprague-Dawley rats; experiment: Spontaneous locomotor activity, dose-response in drug-naive rats; type: in vivo, rat; conditions: for Spontaneous locomotor activity, % of the vehicle control group mean: full hour of recording; for Spontaneous locomotor activity, period 15-60 minutes post dosing (in words) / Spontaneous locomotor activity, initial 15 min (in words): vs vehicle control; for Effect on spontaneous locomotor activity (in words): all doses tested, 60 min recording; for Spontaneous locomotor activity, initial 15 min (in words): initial 15 min of recording
# Procedure: as §1, §2, §3, §4
# During measurements of behavioural activity, a rat is put in a transparent acrylic cage with matted black floor (W×L×H, 41×41×30 cm) which in turn is placed in the activity monitor. […] Two rows are placed along the front and the side of the floor of the cage, at a 90 degree angle, and the third row is placed 10 cm above the floor to measure vertical activity. Photobeam sensors are spaced 2.5 cm apart.
# [8] = test system: Arc mRNA; experiment: Arc gene expression (Arc mRNA, real-time PCR) in striatum and frontal cortex, dose-response studies; type: in vivo, rat
# Procedure: as §1, §4
# Reference genes are HPRT and cyclophilin.
# Correct PCR products are confirmed by agarose gel electroforesis (2%) PCR products are purified with PCR purification kit from Qiagen (Valencia, Calif., USA). All genes are sequenced at MWG, Germany.
# For the data shown in FIG. 6, the reverse transcription and PCR were performed as follows:
# Reversed transcription is performed by using a ThermoScript kit (Invitrogen).
# cDNA of Arc and two reference genes, hypoxanthine-guanine phosphoribosyltransferase (HPRT) and cyclophilin A, was amplified by real-time PCR in either a triplex reaction (Tetrabenazine studies) or three singleplex reactions (studies with Pridopidine and haloperidol).
# [9] = 0.04 mg/kg s.c. together with Tetrabenazine 0.64 mg/kg
# [10] = 0.12 mg/kg s.c. together with Tetrabenazine 0.64 mg/kg
# [11] = 33 μmol/kg s.c. together with Tetrabenazine 0.64 mg/kg
# [12] = 100 μmol/kg s.c. together with Tetrabenazine 0.64 mg/kg
# [13] = 33 μmol/kg s.c. coadministered with Tetrabenazine 0.64 mg/kg
# [14] = 100 μmol/kg s.c. coadministered with Tetrabenazine 0.64 mg/kg
# [15] = 0.64 mg/kg s.c., vs vehicle control
compound,measurement,setting,value
O=C(CCCN1CCC(O)(c2ccc(Cl)cc2)CC1)c1ccc(F)cc1 [Haloperidol],"DOPAC striatum, interaction with Tetrabenazine",[1]; [9],187% and 187 ± 6 %
same,"DOPAC striatum, interaction with Tetrabenazine",[1]; [10],218% and 218 ± 12 %
same,"DOPAC striatum, dose-response in naive rats",[2]; 0.04 mg/kg s.c.,171 ± 35%
same,"DOPAC striatum, dose-response in naive rats",[2]; 0.12 mg/kg s.c.,276 ± 8 %
same,"DOPAC striatum, dose-response in naive rats",[2]; 0.37 mg/kg s.c.,254 ± 17 %
same,"DOPAC striatum, dose-response in naive rats",[2]; 1.1 mg/kg s.c.,292 ± 10 %
same,"DA striatum, dose-response in naive rats",[3]; 0.04 mg/kg s.c.,95 ± 5%
same,"DA striatum, dose-response in naive rats",[3]; 0.12 mg/kg s.c.,78 ± 3 %
same,"DA striatum, dose-response in naive rats",[3]; 0.37 mg/kg s.c.,79 ± 5 %
same,"DA striatum, dose-response in naive rats",[3]; 1.1 mg/kg s.c.,81 ± 2 %
same,"Striatal Arc, % of the Tetrabenazine control group mean",[4]; 0.04 mg/kg s.c. coadministered with Tetrabenazine 0.64 mg/kg,272%
same,"Striatal Arc, % of the Tetrabenazine control group mean",[4]; 0.12 mg/kg s.c. coadministered with Tetrabenazine 0.64 mg/kg,400%
same,Cortical Arc gene expression in rats co-treated with Tetrabenazine (in words),[4]; 0.04 and 0.12 mg/kg s.c. with Tetrabenazine 0.64 mg/kg,no significant effect
same,"Locomotor activity, % of Tetrabenazine control group mean",[5]; 0.04 mg/kg s.c. combined with Tetrabenazine 0.64 mg/kg,51%
same,"Locomotor activity, % of Tetrabenazine control group mean",[5]; 0.12 mg/kg s.c. combined with Tetrabenazine 0.64 mg/kg,41%
same,"Locomotor activity in Tetrabenazine treated rats, 15-60 min (in words)",[5],the reduction was significant for the 0.12 mg/kg dose only
same,Effect on Tetrabenazine induced locomotor activity reduction (in words),[5],further reduced locomotor activity in animals treated with Tetrabenazine
same,"Locomotor activity in Tetrabenazine treated rats, 0-15 min (in words)",[5],this reducing effect was significant at both the 0.04 mg/kg (P<0.01) and the 0.12 mg/kg (P<0.05) doses
same,"DA striatum, interaction with Tetrabenazine",[6]; [9],79 ± 3 %
same,"DA striatum, interaction with Tetrabenazine",[6]; [10],87 ± 10%
same,"Spontaneous locomotor activity, % of the vehicle control group mean",[7]; 0.37 mg/kg s.c.,about 35%
same,"Spontaneous locomotor activity, % of the vehicle control group mean",[7]; 1.1 mg/kg s.c.,about 35%
same,"Spontaneous locomotor activity, period 15-60 minutes post dosing (in words)",[7],a significant effect (P<0.05) was observed for the 1.1 mg/kg dose group only
same,Effect on spontaneous locomotor activity (in words),[7]; s.c.,dose-dependent inhibitory effect on spontaneous locomotor activity
same,"Spontaneous locomotor activity, initial 15 min (in words)",[7],significant reductions (P<0.05) were seen both for the 0.37 and 1.1 mg/kg haloperidol dose groups
same,Doses with statistically significant effects on spontaneous locomotor activity,"[7]; s.c., not at the lowest dose tested, 0.04 mg/kg",≥ 0.12 mg/kg
same,"Arc mRNA in the striatum, % of the vehicle control group mean",[8]; 0.12 mg/kg s.c.,262%
same,"Arc mRNA in the striatum, % of the vehicle control group mean",[8]; 0.37 mg/kg s.c.,331%
same,"Arc mRNA in the striatum, % of the vehicle control group mean",[8]; 1.1 mg/kg s.c.,409%
same,Cortical Arc gene expression (in words),"[8]; dose-response, 0.12, 0.37 and 1.1 mg/kg s.c.",no significant effect
"CCCN1CCC(c2cccc(S(C)(=O)=O)c2)CC1 [Pridopidine, 4-(3-Methanesulfonyl-phenyl)-1-propyl-piperidine]","DOPAC striatum, interaction with Tetrabenazine",[1]; [11],123 ± 8 ^ %
same,"DOPAC striatum, interaction with Tetrabenazine",[1]; [12],155% and 155 ± 4 %
same,"DOPAC striatum, dose-response in naive rats",[2]; 11 μmol/kg s.c.,117 ± 5 %
same,"DOPAC striatum, dose-response in naive rats",[2]; 33 μmol/kg s.c.,178 ± 7 %
same,"DOPAC striatum, dose-response in naive rats",[2]; 100 μmol/kg s.c.,236 ± 17 %
same,"DA striatum, dose-response in naive rats",[3]; 11 μmol/kg s.c.,104 ± 3%
same,"DA striatum, dose-response in naive rats",[3]; 33 μmol/kg s.c.,101 ± 3%
same,"DA striatum, dose-response in naive rats",[3]; 100 μmol/kg s.c.,73 ± 4 %
same,"Frontal cortex Arc mRNA, % of the Tetrabenazine control group mean",[4]; [13],125%
same,"Striatal Arc, % of the Tetrabenazine control group mean",[4]; [13],144%
same,"Frontal cortex Arc mRNA, % of the Tetrabenazine control group mean",[4]; [14],193%
same,"Striatal Arc, % of the Tetrabenazine control group mean",[4]; [14],207%
same,"Locomotor activity, % of Tetrabenazine control mean",[5]; 33 μmol/kg s.c. combined with Tetrabenazine 0.64 mg/kg,135%
same,"Locomotor activity, % of Tetrabenazine control mean",[5]; 100 μmol/kg s.c. combined with Tetrabenazine 0.64 mg/kg,137%
same,"Locomotor activity in Tetrabenazine treated rats, 15-60 min (in words)",[5],this reversing effect reached significance for the Pridopidine 100 μmol/kg dose group
same,Effect on Tetrabenazine induced locomotor activity reduction (in words),[5],reversed the behavioural inhibition induced by Tetrabenazine
same,"Locomotor activity in Tetrabenazine treated rats, 0-15 min (in words)",[5],this reversing effect reached significance for the Pridopidine 100 μmol/kg dose group
same,"DA striatum, interaction with Tetrabenazine",[6]; [11],91 ± 11%
same,"DA striatum, interaction with Tetrabenazine",[6]; [12],98 ± 8%
same,"Spontaneous locomotor activity, % of the vehicle control group mean",[7]; 33 μmol/kg s.c.,138%
same,"Spontaneous locomotor activity, period 15-60 minutes post dosing (in words)",[7],no significant effects were observed
same,Effect on spontaneous locomotor activity (in words),[7]; s.c.,no inhibitory effect on spontaneous locomotor activity
same,"Spontaneous locomotor activity, initial 15 min (in words)",[7],a significant increase (P<0.05) was seen for the 11 μmol/kg Pridopidine dose group
same,"Arc mRNA in the frontal cortex, % of the vehicle control group mean",[8]; 33 μmol/kg s.c.,149%
same,"Arc mRNA in the striatum, % of the control group mean",[8]; 33 μmol/kg s.c.,168%
same,"Arc mRNA in the frontal cortex, % of the vehicle control group mean",[8]; 100 μmol/kg s.c.,222%
same,"Arc mRNA in the striatum, % of the control group mean",[8]; 100 μmol/kg s.c.,253%
"COc1cc2c(cc1OC)C1CC(=O)C(CC(C)C)CN1CC2 (stereo not drawn) [Tetrabenazine, (SS,RR)-3-Isobutyl-9,10-dimethoxy-1,3,4,6,7,11b-hexahydro-pyrido[2,1-a]isoquinolin-2-one]","DOPAC striatum, dose-response in naive rats",[2]; 0.37 mg/kg s.c.,144 ± 8 %
same,"DOPAC striatum, dose-response in naive rats",[2]; 0.64 mg/kg s.c.,208 ± 14 %
same,"DOPAC striatum, dose-response in naive rats",[2]; 1.1 mg/kg s.c.,263 ± 19 %
same,"DA striatum, dose-response in naive rats",[3]; 0.37 mg/kg s.c.,48 ± 2 %
same,"DA striatum, dose-response in naive rats",[3]; 0.64 mg/kg s.c.,33 ± 3 %
same,"Striatal dopamine, % of vehicle control group mean","[3]; 0.64 mg/kg, the dose used in the interaction experiments, throughout the studies performed",approximately 50%
same,"DA striatum, dose-response in naive rats",[3]; 1.1 mg/kg s.c.,20 ± 2 %
same,"Locomotor activity, Tetrabenazine control group vs. vehicle treated controls (in words)","[7]; 0.64 mg/kg s.c., full hour (P<0.001), 0-15 min and 15-60 min (P<0.01), interaction experiment with Pridopidine",significant decrease
same,"Spontaneous locomotor activity, % of the vehicle control group mean",[7]; 1.1 mg/kg s.c.,40%
same,"Spontaneous locomotor activity, period 15-60 minutes post dosing (in words)",[7],significant effects (P<0.05) were observed at 0.64 and 1.1 mg/kg
same,Effect on spontaneous locomotor activity (in words),[7]; s.c.,dose dependently inhibited spontaneous locomotor activity
same,"Spontaneous locomotor activity, initial 15 min (in words)",[7],significant reductions (P<0.05) were seen both for the 1.1 and 0.37 mg/kg
same,"Arc mRNA in the frontal cortex, % of control group mean","[8]; 0.64 mg/kg s.c., trend, p=0.14",83%
same,"Frontal cortex Arc mRNA, Tetrabenazine alone in the interaction experiments (in words)",[8]; [15],significant decrease; also recorded: tended to decrease
same,"Striatal Arc mRNA, Tetrabenazine alone in the interaction experiments (in words)",[8]; [15],no significant effect
same,"Arc mRNA in the frontal cortex, % of the vehicle control group mean",[8]; 1.1 mg/kg s.c.,66%
same,"Arc mRNA in the striatum, % of the vehicle control group mean",[8]; 1.1 mg/kg s.c.,147%
